Assay results: patent publication US20160145247A1, “Aminomethyl-Biaryl Derivatives Complement Factor D inhibitors and uses thereof” (NOVARTIS AG, priority 2013, published 2016)

Biological target: T1, factor D (Homo sapiens, UniProt P00746)
T1 construct: made in house; host or cells: E. coli
Test: factor D inhibition assay of Biological Example 2
Type: biochemical

T1 sequence (P00746 26-253): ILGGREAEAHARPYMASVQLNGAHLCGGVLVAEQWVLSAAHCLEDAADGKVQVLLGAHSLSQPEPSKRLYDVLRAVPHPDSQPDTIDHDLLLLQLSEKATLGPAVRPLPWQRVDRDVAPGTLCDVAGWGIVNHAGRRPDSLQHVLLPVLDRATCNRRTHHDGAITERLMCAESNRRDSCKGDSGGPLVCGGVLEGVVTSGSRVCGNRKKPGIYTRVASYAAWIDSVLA

SMILES	IC50 [nM]
NCc1cccc(-c2cc(COc3ccccc3CC(=O)O)cc(C(NC(=O)c3ccccc3)C(F)(F)F)c2)c1 (stereo not drawn) [Example 208-D]	4
NCc1cccc(-c2cc(CNCC(F)(F)F)cc(COc3ccccc3CC(=O)O)c2)c1 [Example 208-E]	3
CC(NCc1cc(COc2ccccc2CC(=O)O)cc(-c2cccc(CN)c2)c1)C(F)(F)F (stereo not drawn) [Example 208-F]	9
CN(Cc1cc(COc2ccccc2CC(=O)O)cc(-c2cccc(CN)c2)c1)CC(F)(F)F [Example 208-G]	6
NCc1cccc(-c2cc(COc3ccccc3CC(=O)O)cc(-c3cc4ccccc4[nH]3)c2)c1 [Example 209-A]	3
Cc1cc(COc2ccccc2CC(=O)O)cc(-c2cccc([C@@H](C)N)c2F)c1 [Example 210-C, (R)-2-(2-((3′-(1-aminoethyl)-2′-fluoro-5-methyl-[1,1′-biphenyl]-3-yl)methoxy)phenyl)acetic acid]	12
C[C@@H](N)c1cccc(-c2cc(COc3ccccc3CC(=O)O)c3cn[nH]c3c2)c1F [Example 211-C]	9
C[C@@H](N)c1cccc(-c2cc(COc3ccccc3CC(=O)O)cc(OCCN3CCOCC3)c2)c1F [Example 214-A]	10
C[C@@H](N)c1cccc(-c2cc(COc3ccccc3CC(=O)O)cc(OCC3CCOCC3)c2)c1F [Example 214-D]	18
C[C@@H](N)c1cccc(-c2cc(COc3ccccc3CC(=O)O)cc(OCC3CCCC3)c2)c1F [Example 214-H]	700
COc1cc(COc2ccccc2CC(=O)O)cc(-c2cccc([C@@H](C)N)c2F)c1 [Example 214-I]	7
C[C@@H](N)c1cccc(-c2cc(COc3ccccc3CC(=O)O)cc(OCc3cccnc3)c2)c1F [Example 214-L]	12
C[C@H](N)c1cccc(-c2cc(COc3ccccc3CC(=O)O)cc(OCc3ccccn3)c2)c1F [Example 214-M]	20
C[C@H](N)c1cccc(-c2cc(COc3ccccc3CC(=O)O)cc(OCCF)c2)c1F [Example 214-O]	71
C[C@@H](N)c1cccc(-c2cc(COc3ccccc3CC(=O)O)cc(OCc3cncn3C)c2)c1F [Example 214-Q]	10
C[C@@H](N)c1cccc(-c2cc(O)cc(COc3ccccc3CC(=O)O)c2)c1F [Example 214-R]	7
NC(CF)c1cccc(-c2cccc(COc3ccccc3CC(=O)O)c2)c1F (stereo not drawn) [Example 215, 2-(2-((3′-(1-amino-2-fluoroethyl)-2′-fluoro-[1,1′-biphenyl]-3-yl)methoxy)phenyl)acetic acid]	8
C[C@@H](N)c1cccc(-c2cc(NCC3CC3)cc(N(C)Cc3ccccc3CC(=O)O)c2)c1F [Example 216-AA]	32
C[C@@H](N)c1cccc(-c2cc(NC[C@@H]3CCCO3)cc(N(C)Cc3ccccc3CC(=O)O)c2)c1F [Example 216-AB]	55

SMILES	IC50 [nM]
C[C@@H](N)c1cccc(-c2cc(NCC(F)F)cc(N(C)Cc3ccccc3CC(=O)O)c2)c1F [Example 216-AC]	33
C[C@@H](N)c1cccc(-c2cc(CNC3CC3)cc(COc3ccccc3CC(=O)O)c2)c1F [Example 216-AD]	20
C[C@@H](N)c1cccc(-c2cc(COc3ccccc3CC(=O)O)cc(CN3CCOCC3)c2)c1F [Example 216-AE]	53
C[C@@H]1CN(Cc2cc(COc3ccccc3CC(=O)O)cc(-c3cccc([C@@H](C)N)c3F)c2)C[C@H](C)O1 [Example 216-AH]	90
C[C@@H](N)c1cccc(-c2cc(COc3ccccc3CC(=O)O)cc(CN3CCCOCC3)c2)c1F [Example 216-AI]	24
N[C@H](CF)c1cccc(-c2cc(COc3ccccc3CC(=O)O)cc(NCC3CC3)c2)c1F [Example 216-A]	7
C[C@@H](N)c1cccc(-c2cc(COc3ccccc3CC(=O)O)cc(NCC3CCCC3)c2)c1F [Example 216-D]	2
NC(CF)c1cccc(-c2cc(COc3ccccc3CC(=O)O)cc(NCC3CCCC3)c2)c1F (stereo not drawn) [Example 216-E]	6
C[C@@H](N)c1cccc(-c2cc(COc3ccccc3CC(=O)O)cc(N(C)C[C@@H]3CCCO3)c2)c1F [Example 216-H]	5
CCN(C[C@@H]1CCCO1)c1cc(COc2ccccc2CC(=O)O)cc(-c2cccc([C@@H](C)N)c2F)c1 [Example 216-J]	3
C[C@@H](N)c1cccc(-c2cc(COc3ccccc3CC(=O)O)cc(N(C)CCF)c2)c1F [Example 216-L]	24
C[C@@H](N)c1cccc(-c2cc(COc3ccccc3CC(=O)O)cc(NCC(F)F)c2)c1F [Example 216-M]	13
C[C@@H](N)c1cccc(-c2cc(COc3ccccc3CC(=O)O)cc(N(C)CC(F)F)c2)c1F [Example 216-N]	24
C[C@@H](N)c1cccc(-c2cc(CCc3ccncc3)cc(COc3ccccc3CC(=O)O)c2)c1F [Example 216-P]	13
C[C@@H](N)c1cccc(-c2cc(COc3ccccc3CC(=O)O)cc(NCc3ccccn3)c2)c1F [Example 216-T]	9
C[C@@H](N)c1cccc(-c2cc(COc3ccccc3CC(=O)O)cc(NC3CCCC3)c2)c1F [Example 216-U]	5
C[C@@H](N)c1cccc(-c2cc(NC[C@H]3CCCO3)c3c(c2)C(Oc2ccccc2CC(=O)O)CCO3)c1F (stereo partly drawn) [Example 216-W]	17
C[C@@H](N)c1cccc(-c2cc(NCC3CC3)c3c(c2)C(Oc2ccccc2CC(=O)O)CCO3)c1F (stereo partly drawn) [Example 216-X]	14
C[C@@H](N)c1cccc(-c2cc(NCC3CC3)c3c(c2)C(Oc2ccccc2CC(=O)O)CCC3)c1F (stereo partly drawn) [Example 216-Z]	13

Second part, the compound after the results:

IC50 [nM]	SMILES
4	Cn1cc(-c2cc(COc3ccccc3CC(=O)O)cc(-c3cccc(CN)c3)c2)cn1 [Example 208-H]
4	NCc1cccc(-c2cc(COc3ccccc3CC(=O)O)cc(-c3ccn[nH]3)c2)c1 [Example 209-B]
5	CC(C)n1cc(-c2cc(COc3ccccc3CC(=O)O)cc(-c3cccc(CN)c3)c2)cn1 [Example 209-C]
4	CC(C)Cn1cc(-c2cc(COc3ccccc3CC(=O)O)cc(-c3cccc(CN)c3)c2)cn1 [Example 209-D]
5	COCCn1cc(-c2cc(COc3ccccc3CC(=O)O)cc(-c3cccc(CN)c3)c2)cn1 [Example 209-E]
5	C[C@@H](N)c1cccc(-c2cc(COc3ccccc3CC(=O)O)cc(OCc3ccccn3)c2)c1F [Example 213, (R)-2-(2-((3′-(1-Aminoethyl)-2′-fluoro-5-(pyridin-2-ylmethoxy)-[1,1′-biphenyl]-3-yl)methoxy)phenyl)acetic acid]
5	C[C@@H](N)c1cccc(-c2cc(COc3ccccc3CC(=O)O)cc(OCc3nccs3)c2)c1F [Example 214-B]
8	C[C@@H](N)c1cccc(-c2cc(COc3ccccc3CC(=O)O)cc(OCCF)c2)c1F [Example 214-C]
8	C[C@@H](N)c1cccc(-c2cc(COc3ccccc3CC(=O)O)cc(OCc3ccn(C)n3)c2)c1F [Example 214-E]
3	C[C@@H](N)c1cccc(-c2cc(COc3ccccc3CC(=O)O)cc(OCc3ccncc3)c2)c1F [Example 214-F]
22	C[C@@H](N)c1cccc(-c2cc(COc3ccccc3CC(=O)O)cc(OCCN3CCCC3)c2)c1F [Example 214-G]
9	C[C@@H](N)c1cccc(-c2cc(COc3ccccc3CC(=O)O)cc(OCc3ccncn3)c2)c1F [Example 214-J]
15	C[C@@H](N)c1cccc(-c2cc(COc3ccccc3CC(=O)O)cc(OCc3ncn(C)n3)c2)c1F [Example 214-K]
5	C[C@H](N)c1cccc(-c2cc(COc3ccccc3CC(=O)O)cc(OCc3nccs3)c2)c1F [Example 214-N]
14	C[C@H](N)c1cccc(-c2cc(COc3ccccc3CC(=O)O)cc(OCc3cncn3C)c2)c1F [Example 214-P]
16	C[C@@H](N)c1cccc(-c2cc(CNc3ccn(C)n3)cc(COc3ccccc3CC(=O)O)c2)c1F [Example 216-AF]

IC50 [nM]	SMILES
24	C[C@@H](N)c1cccc(-c2cc(CNC3CCOC3)cc(COc3ccccc3CC(=O)O)c2)c1F (stereo partly drawn) [Example 216-AG]
460	C[C@@H](N)c1cccc(-c2cc(COc3ccccc3CC(=O)O)cc(CN3CCCC3)c2)c1F [Example 216-AJ]
56	N[C@@H](CF)c1cccc(-c2cc(COc3ccccc3CC(=O)O)cc(NCC3CC3)c2)c1F [Example 216-B]
6	C[C@H](N)c1cccc(-c2cc(COc3ccccc3CC(=O)O)cc(NCC3CCCC3)c2)c1F [Example 216-C]
31	C[C@@H](N)c1cccc(-c2cc(COc3ccccc3CC(=O)O)cc(N(C)CC3CCCC3)c2)c1F [Example 216-F]
7	C[C@@H](N)c1cccc(-c2cc(COc3ccccc3CC(=O)O)cc(N(C)CC3CCCO3)c2)c1F (stereo partly drawn) [Example 216-G]
13	C[C@@H](N)c1cccc(-c2cc(COc3ccccc3CC(=O)O)cc(N(C)C[C@H]3CCCO3)c2)c1F [Example 216-I]
2	C[C@@H](N)c1cccc(-c2cc(COc3ccccc3CC(=O)O)cc(NCCF)c2)c1F [Example 216-K]
78	C[C@H](N)c1cccc(-c2cc(CCc3ccncc3)cc(COc3ccccc3CC(=O)O)c2)c1F [Example 216-O]
12	NC(CF)c1cccc(-c2cc(CCc3ccncc3)cc(COc3ccccc3CC(=O)O)c2)c1F (stereo not drawn) [Example 216-Q]
147	C[C@@H](N)c1cccc(-c2cc(COc3ccccc3CC(=O)O)cc(C(=O)N(C)C)c2)c1F [Example 216-R]
21	C[C@@H](N)c1cccc(-c2cc(Cl)cc(COc3ccccc3CC(=O)O)c2)c1F [Example 216-S]
9	C[C@@H](N)c1cccc(-c2cc(COc3ccccc3CC(=O)O)cc(N3CCCC3)c2)c1F [Example 216-V]
19	C[C@@H](N)c1cccc(-c2cc(NC[C@H]3CCCO3)c3c(c2)C(Oc2ccccc2CC(=O)O)CCC3)c1F (stereo partly drawn) [Example 216-Y]
6	C[C@@H](N)c1cccc(-c2cc(C#Cc3ccn(C)n3)cc(COc3ccccc3CC(=O)O)c2)c1F [Example 218-G, (R)-2-(2-((3′-(1-Aminoethyl)-2′-fluoro-5-((1-methyl-1H-pyrazol-3-yl)ethynyl)-[1,1′-biphenyl]-3-yl)methoxy)phenyl)acetic acid]
